Test results as given in article PMC9025605, “Polymerized β-Cyclodextrin-Based Injectable Hydrogel for Sustained Release of 5-Fluorouracil/Methotrexate Mixture in Breast Cancer Management: In Vitro and In Vivo Analytical Validations” (Pharmaceutics, 2022).
Like-named read-outs stand apart in the source and are kept apart here.

What was measured:
[1] = tested on: breast tumor (chemically induced breast cancer); test: Effect on tumor growth (tumor volume, % inhibition); assay type: in vivo, female rats; details: negative = tumor growth, read from Figure 6
Description: For transplantation experiments, recipient syngeneic female rats (6–7 weeks old) were anesthetized with an intramuscular injection of ketamine (8.0 mg/kg dose) and xylazine (10 mg/kg dose). Breast cancer was induced to the investigated rats by chemical induction using […], previously reported techniques. […] The tumor size for all animals was examined using a Vernier caliper (micrometer-Ozaki Ltd., Tokyo, Japan) and calculated using the following Equation (2). TV (mm^3) = 1/2 × Length × Width^2(2)
Thus, the changes in a tumor volume in rats were determined every 5 days for 15 days after administration of the injectable medicated hydrogel (contains a concentration of 100 and 40 mg/kg, respectively, for 5-FU and MTX). The antitumor effect was monitored via measuring both the relative tumor volume (RTV), representing the tumor volume after treatment, using Equation (3). (3) % RTV=(Vt)/(V0)×100 where, Vt represents the tumor volume at each time interval, and V0 is a tumor volume directly after drug injection. The % of tumor volume inhibition was calculated using the following Equation (4). (4) % Inhibition =1−(Vt)/(V0)×100

[2] = set-up: method as in PMID 1246307, PMID 18794772, PMID 15018974; details: cited from earlier work
[3] = Pharmacokinetic study after intratumoral injection (plasma, HPLC); assay type: in vivo, albino female rats; details: for Cmax: rat plasma
Description: The present in vivo works was performed on albino female rats (weighing 185 ± 15.1 g). The ethical approval of all the experiments was issued by the Faculty of Pharmacy, Al-Azhar University, under no AZ-AS/PH/2/C/2021. The rats were acclimatized at room temperature with a 12-h light/12-h dark cycle. Tumor-induction of 48 female rats were randomly divided into the four independent groups (with n = 12 per each group × triple trials); G1 was the controlled group, which is positive control and were received no any type of medications; G2 received a sole dose of 5-FU saline solution (100 mg/kg); G3 received a combined mixture of 5-FU/MTX saline solution (respectively, 100 and 40 mg/kg); and, finally, G4 received 5-FU/MTX hydrogel. The sole 5-FU and/or combined with MTX doses in normal saline were injected into rats using normal syringes, while the injectable medicated hydrogel doses were injected using a mixing syringe device (Doowon Meditec Corp., Youngin City, Republic of Korea). After finishing the administration processes, blood samples were collected at certain time intervals (0.5, 1, 2, 4, 6, 8, 10, 12, and 14 h). HPLC chromatographic analysis was utilized for the detection of drug concentrations.
One mL of a plasma sample in an Eppendorf tube was initially mixed with phosphate buffer (0.2 mL of 0.5 M at pH 8), after being mixed in a vortex, and an ethyl acetate solution (4.0 mL) was added and mixed in a vortex for 1 min. Then, the contents of the tube were centrifuged at 5000 rpm and temperature 10 °C for 5 min. The organic phase was taken and evaporated until dry, by using a stream of nitrogen gas at 55 °C. The drug mixture in the residue was reconstituted by a solution of potassium dihydrogen phosphate (100 µL of 0.01 M, at pH 4.0), and, then, the resulted solution was filtrated through a 0.2 μm filter syringe, before transferring into autosampler vials of the chromatographic analysis.
A high-performance liquid chromatography, HPLC (Parkin Elmer, JASCO Corporation, Tokyo, Japan), equipped with an autosampler, was used through this study. The detection method was performed using a variable wavelength UV detector, which adjusted at 266 nm for both drugs. The analytical Phenomenex, C18 symmetry RPh-column (4.6 × 250 mm; 5 µm PS) (Cap cell Pak UG120, Shiseido, Tokyo, Japan), was used at 40 °C. The mobile phase was an isocratic mixture (89:11, v/v) of, respectively, methanol and potassium dihydrogen phosphate (10 mM and adjusted to pH 4 with the aid orthophosphoric acid), which was pumped at a flow rate of 1.0 mL/min. The injected volume was 20 µL.
The concentrations of 5-FU and MTX in different rats’ plasma samples (n = 6) were calculated from the corresponding calibration curves equation, developed in the above HPLC method. The plasma concentration-time (Cp/) curve of 5FU/MTX (plasma concentrations; µg/mL in case of using a vehicle of saline, and ng/mL in case of using a vehicle hydrogel) was constructed for both drugs. Next, from the constructed (Cp/t) curves, all the common pharmacokinetic parameters of both drugs were determined using the following Equation (1). […] Moreover, the area under the Cp/t curve (AUC0-24 and AUC0-∞) (ng. h/mL) was measured using the trapezoidal rule to indicate the extent of drug absorption. The peak Cp (Cmax), the time corresponding to the maximum Cp (Tmax), and the half-life, t1/2 (h), were calculated.

mammary gland tissues = test: Histopathological examination of tumor masses (H and E); assay type: in vivo, female rats; details: tumor-bearing rats versus untreated G1
Description: Several tissue samples (n = 3) were taken from the tumor masses of the induced mammary glands and were fixed in formalin for 24 h. The fixed samples were processed for the usual histological procedures for hematoxylin and eosin stains, the counter staining of ultra-thin paraffin sections (5 µm; Micro HM 360® Microtome, Marshall Scientific, Hampton Virginia, USA). The stained sections were examined under a light microscope (Olympus B × 46) and were digitally photographed using its connected Olympus DP 21 digital camera (Olympus Corporation, Tokyo, Japan).

[4] = In vitro release of 5-FU and MTX from the medicated hydrogel in PBS at 37 °C; assay type: physicochemical; details: for duration of quantitative release from hydrogel: 0.1% w/v; for drug released from hydrogel within the first day / drug released from hydrogel within the second day: 0.1% w/v drug in hydrogel
Description: Several samples (n = 6) of the medicated hydrogel (0.5 g, containing 0.5 mg of each 5-FU and MTX), were placed in 2-mL glass vials and allowed to be incubated at 4 °C for 2 h. Next, one mL of PBS was added above the formulated hydrogel mass and allowed to be incubated in a thermostatic water bath under a shaking rate of 50 rpm at 37 °C. After specific time intervals (each 24 h), 700 µL of the supernatant was withdrawn and replaced immediately with a fresh-prepared PBS, previously incubated at the same temperature to ensure the sink conditions. This process of sample withdrawal and replacing was allowed to continue until the complete clearance or full release of both two incorporated drugs from the hydrogel samples. Thus, the concentration of 5-FU and MTX in the mixture, in each collected sample, was measured simultaneously at 266 nm and 302 nm, respectively, with the aid of the spectrophotometric method, as mentioned before.

SMILES | % Inhibition of tumor volume ([1]; 5 days after treatment) [%] | % Inhibition of tumor volume ([1]; 10 days after treatment) [%] | % Inhibition of tumor volume ([1]; 15 days after treatment) [%] | half-life [2] [min] | Tmax ([3]; female, rat, plasma, 100 mg/kg, sole administration of 5-FU in saline) [min] | Cmax ([3]; female, 5-FU alone in saline, 100 mg/kg, intratumoral, read-out: Cmax) [ng/mL] | time within which in vivo release ended ([3]; free 5-FU solution, 100 mg/kg in saline) [h] | elimination half-life (t1/2) ([3]; free 5-FU solution, first order) [min] | histopathological finding in mammary gland tissue (mammary gland tissues) | duration of quantitative release from hydrogel [4] | drug released from hydrogel within the first day [4] [%] | drug released from hydrogel within the second day [4] [%] | completeness of the release profile of 5-FU ([4]; drug concentration 0.1%) [days] | completeness of the release profile of 5-FU ([4]; drug concentration 0.3%) [days] | completeness of the release profile of 5-FU ([4]; drug concentration 0.5%) [days] | Cmax ([3]; female, other: intratumoral injection, MTX 40 mg/kg, combined with 5-FU in saline, read-out: Cmax of MTX) [ng/mL]
O=c1[nH]cc(F)c(=O)[nH]1 [5-FU, 5-fluorouracil] | -25 | -90 | -185 | 10 to 20 | 60 | 25200 | ≤ 7 | 30 | Only mild improvement | two weeks | 15 | 38 | ≤ 14 | ≤ 18 | ≤ 21 | –
CN(Cc1cnc2nc(N)nc(N)c2n1)c1ccc(C(=O)N[C@@H](CCC(=O)O)C(=O)O)cc1 [MTX, methotrexate] | – | – | – | – | – | – | – | – | – | two weeks | 40 | 60 | – | – | – | 15200
